# Test results taken from patent US4018801A, “Substituted oxirane compounds” (The Dow Chemical Company, priority 1975, dated 1977).
# Columns and labels:
# Barnyard Grass = test: Pre-emergent control of seed germination, soil drench; assay type: in vivo; settings: for Percent Pre-Emergent Control of Seed Germination: Barnyard Grass, about 2 weeks
# Text: (§1) Four parts by weight of the compound, 0.08 part of sorbitan trioleate (Span 85), and 0.02 part of a sorbitan monooleate polyoxyethylene derivative (Tween 80) are dipersed in 40 milliliters of acetone to produce a concentrate composition in the form of a water-dispersible liquid containing the predetermined oxirane compound as the sole active agent.
# (§2) A portion of each of these concentrate compositions were separately dispersed in portions of water to provide aqueous compositions, containing 0.44 pound of the oxirane compound per 100 gallons of ultimate aqueous mixture.
# (§3) The aqueous compositions were then employed for the treatment of seed beds of good agricultural soil which had been prepared and seeded with the seeds of various grass species and broadleaf plants. The grass species included white winter wheat, cultured rice, pigweeds, crabgrass, cheat grass, wild oats, Johnson grass, barnyard grass and yellow foxtail; and the broadleaf plants included corn. In the treating operations, a predetermined quantity of each of the compositions was applied to separate seedbeds as a soil drench at a rate of about 0.43 acre inch of aqueous composition per acre. The quantities were controlled to supply a substantial uniform dosage in a seedbed equivalent to 1.0, 2.0 and 5.0 pounds of the oxirane compound per acre. These dosages correspond, respectively, to a concentration, within the soil depth penetrated of about 1.6, 3.2 and 8.0 parts by weight of the oxirane compound per million parts by weight of soil. Other seedbeds were similarly seeded with the named plant species but were left untreated to serve as checks.
# (§4) After about 2 weeks the seedbeds were examined to ascertain what control of the growth of seeds had been obtained.
# (§5) were prepared as in Example 32 and similarly employed for the pre-emergencetreatment of various plant species.
# (§6) An aqueous composition containing 2-(α,α,α -trifluoro-m-tolyl)-2-(2,2,2-trichloroethyl)oxirane was prepared as described in Example 32. The composition was then employed according to the procedures of Example 32 except that lower concentrations of the oxirane compound were employed in the composition.
# (§7) The percent control of the various plant species at the employed dosage rate of the 2-(α,α,α-trifluoro-m-tolyl)- 2-(2,2,2-trichloroethyl) supplied by the composition is set forth in the following Table IV.
# Pigweeds = test: as above; assay type: in vivo; settings: for Percent Pre-Emergent Control of Seed Germination: Pig Weeds, about 2 weeks
# Text: as §1, §2, §3, §4, §5, §6, §7
# Wild Oats = test: as above; assay type: in vivo; settings: for Percent Pre-Emergent Control of Seed Germination: Wild Oats, about 2 weeks
# Text: as §1, §2, §3, §4, §5, §6, §7
# Yellow Foxtail = test: as above; assay type: in vivo
# Text: as §1, §2, §3, §4, §5, §6, §7
# Crabgrass [1] = test: as above; assay type: in vivo; settings: Crabgrass, about 2 weeks
# Text: as §1, §2, §3, §4, §5
# (§8) Separate aqueous compositions containing the 2-(m-chlorophenyl)-2-(2,2,2-trichloroethyl)oxirane (Cmpd. A) and 2-(m-bromophenyl)-2-(2,2,2-trichloroethyl)oxirane (Cmpd. C) compounds of the present invention were prepared as in Example 32 for comparative per-emergence herbicide tests against noxious grass species with the known 2 -(p-chlorophenyl)-2-(2,2,2-trichloroethyl)oxirane (Cmpd. B) compound and 2-(p-bromophenyl)-2-(2,2,2-trichloroethyl)oxirane (Cmpd. D). The pre-emergence tests were conducted in Example 32 and the results of such tests are set forth below in Table III.
# as §6, §7
# Johnson Grass = test: as above; assay type: in vivo; settings: Johnson Grass, about 2 weeks
# Text: as §1, §2, §3, §4, §5, §8, §6, §7
# Cheat Grass = test: as above; assay type: in vivo; settings: 5.0 pounds per surface acre, about 2 weeks
# Text: as §1, §2
# as §3, with “These dosages correspond, respectively, to a concentration, within the soil depth penetrated of about 1.6, 3.2 and 8.0 parts by weight of the oxirane compound per million parts by weight of soil. Other seedbeds were similarly seeded with the named plant species but were left untreated to serve as checks.” left out
# Cultured Rice = test: as above; assay type: in vivo; settings: about 2 weeks
# Text: as §1, §2, §3, §4, §6, §7
# White Winter Wheat = test: as above; assay type: in vivo; settings: about 2 weeks
# Text: as §1, §2, §3, §4, §6, §7
# Corn = test: as above; assay type: in vivo; settings: about 2 weeks
# Text: as §1, §2, §3
# After about 2 weeks the seedbeds were examined to ascertain what control of the growth of seeds had been obtained. […]
# as §6, §7
# Aspergillus terreus = test: Control of fungal plants on nutrient agar; assay type: cell-based; settings: 500 parts by weight per million
# Protocol: (§9) Separate acetone compositions containing 100 and 500 parts, respectively, of each of 2-(p-nitrophenyl)- 2-(2,2,2-trichloroethyl)oxirane and 2-(m-nitrophenyl)- 2-(2,2,2-trichloroethyl)oxirane compounds per million parts by weight of ultimate mixture were prepared by dissolving a pre-determined amount of each of the above compounds in acetone to give the desired concentrations. The solutions were dispersed in melted nutrient agar to produce culture media for fungal plants. The agar solutions were poured into petri dishes and allowed to solidify. The solidified agar surface in each petri dish was inoculated with one species of a fungal plant; the plants employed being Staphylococcus aureus, Candida albicans, Trichophton mentagrophytes, Bacillus subtilis, Aspergillus terreus, Candida pelliculosa, Pullularia pullulans, Mycobacterium phlei, Cephaloascus fragans and Aerobacter aerogenes.
# (§10) The inoculation was carried out by applying droplets of a solution containing the fungal plants to the agar surfaces. The inoculated petri dishes were then incubated for an appropriate period of time and under conditions conducive to the growth of the fungal plants involved.
# (§11) After incubation, the petri dishes were examined to determine the degree of control of the fungal plants.
# Bacillus subtilis = test: Control of fungal plants on nutrient agar; assay type: cell-based; settings: 500 parts by weight per million
# Protocol: as §9, §10, §11
# Candida albicans = test: Control of fungal plants on nutrient agar; assay type: cell-based; settings: 500 parts by weight per million
# Protocol: as §9, §10, §11
# Candida pelliculosa = test: Control of fungal plants on nutrient agar; assay type: cell-based; settings: 500 parts by weight per million
# Protocol: as §9, §10, §11
# Cephaloascus fragans = test: Control of fungal plants on nutrient agar; assay type: cell-based; settings: 500 parts by weight per million
# Protocol: as §9, §10, §11
# Mycobacterium phlei = test: Control of fungal plants on nutrient agar; assay type: cell-based; settings: 500 parts by weight per million
# Protocol: as §9, §10, §11
# Pullularia pullulans = test: Control of fungal plants on nutrient agar; assay type: cell-based; settings: 500 parts by weight per million
# Protocol: as §9, §10, §11
# Staphylococcus aureus = test: Control of fungal plants on nutrient agar; assay type: cell-based; settings: 500 parts by weight per million
# Protocol: as §9, §10, §11
# [2] = tested on: Trichophton mentagrophytes; test: Control of fungal plants on nutrient agar; assay type: cell-based; settings: 500 parts by weight per million
# Protocol: as §9, §10, §11
# Crabgrass [3] = test: Pre-emergent control of seed germination, soil drench; assay type: in vivo; settings: 20 pounds per acre
smiles,measurement,setting,value
"O=[N+]([O-])c1cccc(C2(CC(Cl)(Cl)Cl)CO2)c1 (stereo not shown) [Example 2, 2-(m-nitrophenyl)-2-(2,2,2-trichloroethyl)oxirane]",Percent Pre-Emergent Control of Seed Germination,Barnyard Grass; 1.0 pounds per surface acre,50%
same,Percent Pre-Emergent Control of Seed Germination,Barnyard Grass; 2.0 pounds per surface acre,50%
same,Percent Pre-Emergent Control of Seed Germination,Barnyard Grass; 5.0 pounds per surface acre,95%
same,Percent Pre-Emergent Control of Seed Germination,Pigweeds; 1.0 pounds per surface acre,85%
same,Percent Pre-Emergent Control of Seed Germination,Pigweeds; 2.0 pounds per surface acre,95%
same,Percent Pre-Emergent Control of Seed Germination,Pigweeds; 5.0 pounds per surface acre,95%
same,Percent Pre-Emergent Control of Seed Germination,Wild Oats; 1.0 pounds per surface acre,40%
same,Percent Pre-Emergent Control of Seed Germination,Wild Oats; 2.0 pounds per surface acre,50%
same,Percent Pre-Emergent Control of Seed Germination,Wild Oats; 5.0 pounds per surface acre,80%
same,Percent Pre-Emergent Control of Seed Germination,"Yellow Foxtail; Yellow Foxtail, 1.0 pounds per surface acre, about 2 weeks",100%
same,Percent Pre-Emergent Control of Seed Germination,Crabgrass [1]; 1.0 pounds per surface acre,95%
same,Percent Pre-Emergent Control of Seed Germination,Crabgrass [1]; 2.0 pounds per surface acre,100%
same,Percent Pre-Emergent Control of Seed Germination,Crabgrass [1]; 5.0 pounds per surface acre,100%
same,Percent Pre-Emergent Control of Seed Germination,Johnson Grass; 1.0 pounds per surface acre,70%
same,Percent Pre-Emergent Control of Seed Germination,Johnson Grass; 2.0 pounds per surface acre,85%
same,Percent Pre-Emergent Control of Seed Germination,Johnson Grass; 5.0 pounds per surface acre,95%
same,Percent Pre-Emergent Control of Seed Germination,Cheat Grass,100%
same,Percent Pre-Emergent Control of Seed Germination,Cultured Rice; 1.0 pounds per surface acre,100%
same,Percent Pre-Emergent Control of Seed Germination,Cultured Rice; 2.0 pounds per surface acre,95%
same,Percent Pre-Emergent Control of Seed Germination,Cultured Rice; 5.0 pounds per surface acre,100%
same,Percent Pre-Emergent Control of Seed Germination,White Winter Wheat; 1.0 pounds per surface acre,90%
same,Percent Pre-Emergent Control of Seed Germination,White Winter Wheat; 2.0 pounds per surface acre,50%
same,Percent Pre-Emergent Control of Seed Germination,White Winter Wheat; 5.0 pounds per surface acre,95%
same,Percent Pre-Emergent Control of Seed Germination,Corn; 1.0 pounds per surface acre,100%
same,Percent Pre-Emergent Control of Seed Germination,Corn; 2.0 pounds per surface acre,50%
same,Percent Pre-Emergent Control of Seed Germination,Corn; 5.0 pounds per surface acre,0%
same,degree of control of the fungal plants,Aspergillus terreus,complete control and kill
same,degree of control of the fungal plants,Bacillus subtilis,complete control and kill
same,degree of control of the fungal plants,Candida albicans,complete control and kill
same,degree of control of the fungal plants,Candida pelliculosa,complete control and kill
same,degree of control of the fungal plants,Cephaloascus fragans,complete control and kill
same,degree of control of the fungal plants,Mycobacterium phlei,complete control and kill
same,degree of control of the fungal plants,Pullularia pullulans,complete control and kill
same,degree of control of the fungal plants,Staphylococcus aureus,complete control and kill
same,degree of control of the fungal plants,[2],complete control and kill
"ClC(Cl)(Cl)CC1(c2cccc(OCc3ccccc3)c2)CO1 (stereo not shown) [Example 16, 2-(m-(benzyloxy)phenyl)-2-(2,2,2-trichloroethyl)oxirane]",pre-emergence control,"Barnyard Grass; barnyard grass, 20 pounds per acre",substantially complete control
same,pre-emergence control,"Pigweeds; pigweed, 20 pounds per acre",substantially complete control
same,pre-emergence control,"Wild Oats; wild oats, 20 pounds per acre",substantially complete control
same,pre-emergence control,"Yellow Foxtail; yellow foxtail, 20 pounds per acre",substantially complete control
same,pre-emergence control,Crabgrass [3],substantially complete control
